What was measured:
Format in all cases: cell-based
human H4 receptor [1] = biological target: T1, human H4 receptor (Homo sapiens, UniProt Q9H3N8); test: H4 Antagonist Functional cAMP Gi Assay; conditions: HEKf cells expressing human H4 receptor; functional antagonist pKb by Cheng-Prusoff vs histamine; read-out: Human H4 cAMP fpKb (converted)
T1 construct: expressed in transfected cells; host or cells: HEKf cells infected with baculovirus
Procedure, shortened: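 Baculovirus-transduced HEKf cells in HBSS with 500 nM IBMX were stimulated with 1 μM forskolin, incubated 30 min with test compounds, and cAMP was then read by HTRF after 60 min detection at room temperature. EC50 values came from 4-parameter logistic fits; pKb was derived by Cheng-Prusoff.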

hERG [2] = biological target: T2, hERG (Homo sapiens, UniProt Q12809); test: hERG pIC50 assay (QPatch automated patch clamp, CHO cells, 1, 3, 10 and 30 μM); conditions: CHO cells expressing hERG, 1-30 μM, ≤4.0 = fails to reach >40% block at 30 μM
T2 sequence (Q12809 whole entry): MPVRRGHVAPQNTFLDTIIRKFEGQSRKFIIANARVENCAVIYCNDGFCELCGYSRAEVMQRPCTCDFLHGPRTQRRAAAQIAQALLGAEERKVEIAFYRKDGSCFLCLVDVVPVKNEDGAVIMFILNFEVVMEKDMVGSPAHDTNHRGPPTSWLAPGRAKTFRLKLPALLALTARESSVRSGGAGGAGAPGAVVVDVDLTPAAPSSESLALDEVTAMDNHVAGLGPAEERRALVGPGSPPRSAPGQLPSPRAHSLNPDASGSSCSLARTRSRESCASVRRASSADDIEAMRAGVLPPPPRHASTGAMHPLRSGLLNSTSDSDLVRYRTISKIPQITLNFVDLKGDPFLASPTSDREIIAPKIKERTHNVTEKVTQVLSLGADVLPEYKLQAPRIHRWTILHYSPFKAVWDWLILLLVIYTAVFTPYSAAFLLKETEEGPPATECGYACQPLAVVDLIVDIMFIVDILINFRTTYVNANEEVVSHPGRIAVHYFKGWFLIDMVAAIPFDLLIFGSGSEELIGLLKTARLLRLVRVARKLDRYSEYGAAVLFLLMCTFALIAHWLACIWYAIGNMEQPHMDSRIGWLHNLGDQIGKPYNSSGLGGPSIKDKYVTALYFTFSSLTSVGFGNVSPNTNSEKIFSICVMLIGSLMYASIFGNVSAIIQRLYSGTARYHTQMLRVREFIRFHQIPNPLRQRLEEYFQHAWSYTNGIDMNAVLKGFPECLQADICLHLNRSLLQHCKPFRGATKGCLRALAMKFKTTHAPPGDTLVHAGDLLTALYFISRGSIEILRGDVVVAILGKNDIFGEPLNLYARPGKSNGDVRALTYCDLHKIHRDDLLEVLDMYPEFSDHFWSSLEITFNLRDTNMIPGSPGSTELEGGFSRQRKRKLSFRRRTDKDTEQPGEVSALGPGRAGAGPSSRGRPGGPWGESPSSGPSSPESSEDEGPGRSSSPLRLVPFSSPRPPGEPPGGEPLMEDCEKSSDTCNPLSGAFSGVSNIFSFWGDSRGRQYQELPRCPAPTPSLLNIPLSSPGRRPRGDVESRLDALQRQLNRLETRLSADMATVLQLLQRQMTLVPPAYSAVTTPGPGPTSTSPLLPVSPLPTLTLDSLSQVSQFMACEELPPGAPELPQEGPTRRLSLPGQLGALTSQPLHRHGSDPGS
Description: (§1) Series resistance (4-15 MΩ) was compensated by >80%.

human H4 receptor [3] = biological target: T1, human H4 receptor; test: H4 Antagonist Functional Dynamic Mass Redistribution Assay; conditions: HEKf cells expressing human H4 receptor; functional antagonist pKb by Cheng-Prusoff vs histamine EC80; read-out: Human H4 DMR fpKb (converted)
Procedure: HEKf cells were infected using baculovirus expressing the human H4 receptor, plated into fibronectin-coated EPIC plates at a density of 10,000 cells/well and incubated overnight at 37° C. The medium on cells was changed to 30 μL HBSS with 20 mM HEPES per well and 30 nL DMSO were added per well by LabCyte ECHO acoustic dispensing. Following 2 h equilibration at room temperature, 30 nL of H4 ligands prepared in DMSO were stamped by LabCyte ECHO acoustic dispensing into seeded EPIC plates and cellular dynamic mass redistribution was monitored using a Corning EPIC plate reader. Following 45 min measurement, 30 nL/well of histamine EC80 was added and monitored to obtain antagonist assay data. Maximum baseline-corrected responses in pm were used to generate concentration response curves. EC50 values were generated using a 4-parameter logistical fit equation to quantify agonist potencies. Functional antagonist affinity values were generated using the Cheng-Prusoff equation to calculate a pKb value using the antagonist assay data.

hERG [4] = biological target: T2, hERG; test: hERG single-concentration assay (QPatch automated patch clamp, CHO cells, 30 μM); conditions: CHO cells stably expressing hERG
Description: as §1

Kb (human H4 receptor [1]) [nM] | Kb (human H4 receptor [3]) [nM] | Compound | IC50 (hERG [2]) [µM] | inhibition at 30 µM (hERG [4]) [%]
0.631 | 2.51 | CC(C)[C@@H]1CCOc2c(nc(N)nc2N2CC[C@@H](N)C2)N1 [Example 12-1, (S)-4-((R)-3-Aminopyrrolidin-1-yl)-8-isopropyl-6,7,8,9-tetrahydropyrimido[5,4-b][1,4]oxazepin-2-amine] | ≥ 100 | –
1 | 1.58 | CNC1CN(c2nc(N)nc3c2OCC[C@@H](C(C)C)N3)C1 [Example 13-1, (S)-8-Isopropyl-4-(3-(methylamino)azetidin-1-yl)-6,7,8,9-tetrahydropyrimido[5,4-b][1,4]oxazepin-2-amine] | ≥ 100 | 15
1.26 | – | CNC1CN(c2nc(N)nc3c2OC[C@@H](C(C)C)N3)C1 [Example 3-2, (R)-7-Isopropyl-4-(3-(methylamino)azetidin-1-yl)-7,8-dihydro-6H-pyrimido[5,4-b][1,4]oxazin-2-amine] | ≥ 100 | 26
0.398 | – | CN[C@@H]1CCN(c2nc(N)nc3c2OCC[C@@H](C(C)C)N3)C1 [Example 11-5, (S)-8-Isopropyl-4-((R)-3-(methylamino)pyrrolidin-1-yl)-6,7,8,9-tetrahydropyrimido[5,4-b][1,4]oxazepin-2-amine] | ≥ 100 | 21
0.631 | 1.26 | CC[C@@H]1CCOc2c(nc(N)nc2N2CC[C@@H](NC)C2)N1 [Example 11-4, (R)-8-Ethyl-4-((R)-3-(methylamino)pyrrolidin-1-yl)-6,7,8,9-tetrahydropyrimido[5,4-b][1,4]oxazepin-2-amine] | ≥ 100 | 39

— patent US20240317775A1, “H4 Antagonist Compounds” (HEPTARES THERAPEUTICS LIMITED, priority 2020, published 2024)
